# Data: patent US11246314B2, “Trichome and pistil maturing formulation” (priority 2015, dated 2022)
# How the values were obtained:
# Type in all cases: in vivo
# Conditions in all cases: in words
# [1] = tested on: powdery mildew; test: Control of powdery mildew, mold and mildew on plants
# Text: (§1) Trials were done with sesame oil alone, in place of bud finisher and bud shield embodiments.
# [2] = tested on: trichomes of Cannabis plants; test: Trichome maturation on sprayed Cannabis plants
# Text: as §1
# (§2) Add all ingredients to a gallon of water 7. Shake or mix well. Pour the final mixture 8 through a double mesh screen 41, into a convenient applicator such as a spray bottle 9 shown in FIG. 6. Apply directly to plants 10 over and under the leaves and flowers and upon the soil. Plant foliage should be sprayed on all surfaces until the solution is dripping off. Spray every 1-7 days as preferred as illustrated in FIG. 7.
# [3] = tested on: pistils of Cannabis plants; test: Pistil maturation on sprayed Cannabis plants
# Text: as §1, §2
smiles,measurement,setting,value
O=C([O-])O.[K+] [Potassium bicarbonate],efficacy against powdery mildew / mold and mildew,[1],very effective
same,effect on trichome maturation,[2],little to no effect
same,effect on pistil maturation,[3],fully matures pistils quickly
